From patent US12630511B2, “Benzamide derivative, preparation method therefor, and pharmaceutical composition comprising same as active ingredient for prevention or treatment of cancer” (KOREA RESEARCH INSTITUTE OF CHEMICAL TECHNOLOGY, priority 2019, dated 2026)

How the values were obtained:
[1] = biological target: T1, EGFR L858R/T790M/C797S mutant enzyme (Homo sapiens, UniProt P00533, C797S/L858R/T790M); assay: Inhibitory capacity against EGFR L858R/T790M/C797S mutant enzyme (Cisbio HTRF); assay type: biochemical; settings: for IC50: HTRF, 1 mM ATP, 37° C. for 2 hours, 7 concentrations
T1 construct: purchased SignalChem
T1 sequence (P00533 25-1210 T790M/C797S/L858R): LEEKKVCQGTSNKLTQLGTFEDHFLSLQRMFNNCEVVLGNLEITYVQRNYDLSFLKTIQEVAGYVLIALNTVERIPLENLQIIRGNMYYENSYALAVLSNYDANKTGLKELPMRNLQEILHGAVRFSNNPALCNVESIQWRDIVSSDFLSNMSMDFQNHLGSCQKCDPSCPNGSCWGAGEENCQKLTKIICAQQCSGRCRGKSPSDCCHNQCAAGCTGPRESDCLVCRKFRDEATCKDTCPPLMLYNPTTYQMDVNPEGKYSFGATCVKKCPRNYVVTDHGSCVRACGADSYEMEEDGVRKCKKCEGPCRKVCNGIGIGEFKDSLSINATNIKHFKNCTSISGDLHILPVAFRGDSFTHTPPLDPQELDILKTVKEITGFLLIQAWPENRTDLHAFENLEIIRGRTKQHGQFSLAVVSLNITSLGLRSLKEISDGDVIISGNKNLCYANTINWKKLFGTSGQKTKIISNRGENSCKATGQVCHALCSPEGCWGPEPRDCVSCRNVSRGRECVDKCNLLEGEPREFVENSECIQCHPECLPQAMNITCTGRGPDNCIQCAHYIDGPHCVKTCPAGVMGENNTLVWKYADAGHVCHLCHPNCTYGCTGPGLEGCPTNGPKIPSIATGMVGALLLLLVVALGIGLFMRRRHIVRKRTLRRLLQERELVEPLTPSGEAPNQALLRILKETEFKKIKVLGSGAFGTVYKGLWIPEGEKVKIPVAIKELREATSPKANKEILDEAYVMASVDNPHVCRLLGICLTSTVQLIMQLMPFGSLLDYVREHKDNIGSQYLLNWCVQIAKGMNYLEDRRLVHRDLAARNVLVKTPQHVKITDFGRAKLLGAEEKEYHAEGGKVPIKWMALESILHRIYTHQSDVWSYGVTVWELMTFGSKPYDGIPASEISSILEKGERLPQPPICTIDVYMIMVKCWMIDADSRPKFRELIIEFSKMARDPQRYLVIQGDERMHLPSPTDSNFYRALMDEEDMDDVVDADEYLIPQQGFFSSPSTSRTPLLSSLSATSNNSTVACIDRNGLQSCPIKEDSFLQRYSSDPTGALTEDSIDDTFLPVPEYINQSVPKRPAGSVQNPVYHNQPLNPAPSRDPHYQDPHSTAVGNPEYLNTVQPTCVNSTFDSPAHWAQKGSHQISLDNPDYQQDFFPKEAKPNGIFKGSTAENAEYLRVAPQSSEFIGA
Experimental: Experimental Example 1: Measurement of Inhibitory Capacity Against EGFR L858R/T790M/C797S
In order to confirm the inhibitory capacity of the compounds prepared in Examples 1 to 13 provided in one aspect of the present invention against EGFR mutation, the following experiment was performed.
Particularly, the activity of the compounds of the present invention against EGFR mutant enzyme was measured using the HTRF system of Cisbio Co. As an EGFR L858R/T790M/C797S mutant enzyme, a protein provided by SignalChem was purchased and used as an enzyme source.
The composition of the assay buffer used for the activity measurement was as follows: 50 mM Tris-HCl (pH 7.5), 100 mM NaCl, 7.5 mM MgCl2, 3 mM KCl, 0.01% Tween 20, 0.1% BSA, and 1 mM DTT. Herein, an enzyme reaction was performed using a peptide substrate labeled with ATP at the concentration of 1 mM and biotin at the concentration of 0.5 μM. The analysis of the EGFR activity inhibitory effect of the compounds was performed according to the following analytical reaction recipe. • Component 1: 4 μl of EGFR mutant enzyme • Component 2: 2 μl of compound solution • Component 3: 4 μl of ATP and biotin-labeled peptide mixture
The enzyme reaction was initiated by mixing the component 1 and the component 2 first and then adding the component 3 thereto. After reacting the mixture at 37° C. for 2 hours, 10 μl of a measurement solution consisting of streptavidin-XL665 and europium-labeled anti-phosphotyrosine antibody provided by Cisbio was added to the enzyme reaction solution, followed by reaction at room temperature for 1 hour. Finally, the ratio of the fluorescence values at 615 nm and 665 nm was calculated using Envision equipment of Perkin-Elmer to quantitatively measure the enzyme activity and confirm the inhibitory ability of the compounds. The values measured at 7 concentrations of the compound were analyzed using Prism program (version 5.01, Graphpad Software, Inc.), and the IC50 value, an index of the inhibitory ability of the compound, was calculated.

[2] = system: Ba/F3 L858R/T790M/C797S (LTC) cells; assay: Anticancer activity in BaF3 cells overexpressing EGFR L858R/T790M/C797S (CellTiter-Glo), alone or combined with cetuximab; assay type: cell-based; settings: cells overexpressed with EGFR L858R/T790M/C797S; combined with cetuximab; 72 hours; FIG. 1 and FIG. 2
Experimental: (§1) Experimental Example 2: Evaluation of Anticancer Activity in BaF3 Cells Overexpressed with Various EGFR Mutations
(§2) In order to confirm that the compound represented by formula 1 according to the present invention acted as an allosteric inhibitor against EGFR wild-type and mutants, the inhibitory effect on EGFR wild-type and mutants in Ba/F3 cell line was evaluated. In addition, in order to evaluate the cellular activity when the compound according to the present invention was co-administered with an existing drug, the cellular activity according to the combined administration was evaluated using Cetuximab used alone or in combination with chemotherapy in metastatic colorectal cancer and metastatic squamous head and neck cancer.
(§3) Particularly, the activity of the compound of the present invention against the wild-type and mutant Ba/F3 EGFR cell lines was measured as follows using the CellTiter-Glo system of Promega. […]
(§4) BaF3 cells were aliquoted in a 96 well cell culture plate at the density of 2500 cells/50 ul per well, to which 50 ul of the compound represented by formula 1 was treated at the concentrations of 0, 0.03, 0.1, 0.3, and 1 μM. […] Finally, the ratio of the fluorescence values at 570 nm was quantitatively measured using a luminometer, and the ability of the compound to inhibit cell viability was confirmed. […]

[3] = system: Ba/F3 EGFR L858R/T790M (LT) cells; assay: Anticancer activity in BaF3 cells overexpressing EGFR L858R/T790M (CellTiter-Glo), alone or combined with cetuximab; assay type: cell-based; settings: cells overexpressed with EGFR L858R/T790M; combined with cetuximab; 72 hours; FIG. 1 and FIG. 2
Experimental: as §1, §2, §3, §4

Row | SMILES | IC50 [1] [nM] | further results
1 | O=C(N[C@@H](c1cc2ccccc2[nH]1)c1cc(F)ccc1O)c1cccc(-c2ccc(N3CCC(N4CCNCC4)CC3)cc2)c1 [Example 6, (R)—N-((5-fluoro-2-hydroxyphenyl)(1H-indole-2-yl)methyl)-4′-(4-(piperazine-1-yl)piperidine-1-yl)-[1,1′-biphenyl]-3-carboxamide] | 190 | –
2 | CN(C)C1CCN(c2ccc(-c3cccc(C(=O)N[C@@H](c4cc5ccccc5[nH]4)c4cc(F)ccc4O)c3)cc2)CC1 [Example 7, (R)-4′-(4-(dimethylamino)piperidine-1-yl)-N-((5-fluoro-2-hydroxyphenyl)(1H-indole-2-yl)methyl)-[1,1′-biphenyl]-3-carboxamide] | 160 | –
3 | N[C@H]1CCN(c2ccc(-c3cccc(C(=O)N[C@@H](c4cc5ccccc5[nH]4)c4cc(Cl)ccc4O)c3)cc2)C1 [Example 13, 4′-((S)-3-aminopyrrolidine-1-yl)-N—((R)-(5-chloro-2-hydroxyphenyl)(1H-indole-2-yl)methyl)-[1,1′-biphenyl]-3-carboxamide] | > 10000 | –
4 | NC1CCN(c2ccc(-c3cccc(C(=O)N[C@@H](c4cc5ccccc5[nH]4)c4cc(F)ccc4O)c3)cc2)CC1 [Example 3, (R)-4′-(4-aminopiperidine-1-yl)-N-((5-fluoro-2-hydroxyphenyl)(1H-indole-2-yl)methyl)-[1,1′-biphenyl]-3-carboxamide] | 7 | inhibitory capacity against EGFR L858R/T790M/C797S mutation (in words) ([1]; summary of Table 2): excellent inhibitory capacity; anticancer activity in combination with cetuximab (cell viability relative to cetuximab only) [2]: synergistic anticancer activity; anticancer activity in combination with cetuximab (cell viability relative to cetuximab only) [3]: synergistic anticancer activity
5 | O=C(N[C@@H](c1cc2ccccc2[nH]1)c1cc(F)ccc1O)c1cccc(-c2ccc(N3CCCC3)cc2)c1 [Example 10, (R)—N-((5-fluoro-2-hydroxyphenyl)(1H-indole-2-yl)methyl)-4′-(pyrrolidine-1-yl)-[1,1′-biphenyl]-3-carboxamide] | 5900 | –
6 | CN1CCC(N2CCN(c3ccc(-c4cccc(C(=O)N[C@@H](c5cc6ccccc6[nH]5)c5cc(F)ccc5O)c4)cc3)CC2)CC1 [Example 9, (R)—N-((5-fluoro-2-hydroxyphenyl)(1H-indole-2-yl)methyl)-4′-(4-(1-methylpiperidine-4-yl)piperazine-1-yl)-[1,1′-biphenyl]-3-carboxamide] | 72 | –
7 | CN1CCN(C2CCN(c3ccc(-c4cccc(C(=O)N[C@@H](c5cc6ccccc6[nH]5)c5cc(F)ccc5O)c4)cc3)CC2)CC1 [Example 5, (R)—N-((5-fluoro-2-hydroxyphenyl)(1H-indole-2-yl)methyl)-4′-(4-(4-methylpiperazine-1-yl)piperidine-1-yl)-[1,1′-biphenyl]-3-carboxamide] | 2600 | –
8 | CC(=O)N1CCN(c2ccc(-c3cccc(C(=O)N[C@@H](c4cc5ccccc5[nH]4)c4cc(F)ccc4O)c3)cc2)CC1 [Example 2, (R)-4′-(4-acetylpiperazine-1-yl)-N-((5-fluoro-2-hydroxyphenyl)(1H-indole-2-yl)methyl)-[1,1′-biphenyl]-3-carboxamide] | 61 | –
9 | O=C(N[C@@H](c1cc2ccccc2[nH]1)c1cc(F)ccc1O)c1cccc(-c2ccc(N3CCNCC3)cc2)c1 [Example 1, (R)—N-((5-fluoro-2-hydroxyphenyl)(1H-indole-2-yl)methyl)-4′-(piperazine-1-yl)-[1,1′-biphenyl]-3-carboxamide] | 46 | –
10 | O=C(N[C@@H](c1cc2ccccc2[nH]1)c1cc(F)ccc1O)c1cccc(-c2ccc(N3CCN(C4CCNCC4)CC3)cc2)c1 [Example 8, (R)—N-((5-fluoro-2-hydroxyphenyl)(1H-indole-2-yl)methyl)-4′-(4-(piperidine-4-yl)piperazine-1-yl)-[1,1′-biphenyl]-3-carboxamide] | 140 | –
11 | N[C@@H]1CCN(c2ccc(-c3cccc(C(=O)N[C@@H](c4cc5ccccc5[nH]4)c4cc(F)ccc4O)c3)cc2)C1 [Example 11, 4′-((R)-3-aminopyrrolidine-1-yl)-N—((R)-(5-fluoro-2-hydroxyphenyl)(1H-indole-2-yl)methyl)-[1,1′-biphenyl]-3-carboxamide] | 160 | –
12 | NC1CCN(c2ccc(-c3cccc(C(=O)N[C@@H](c4cc5ccccc5[nH]4)c4cc(Cl)ccc4O)c3)cc2)CC1 [Example 4, (R)-4′-(4-aminopiperidine-1-yl)-N-((5-chloro-2-hydroxyphenyl)(1H-indole-2-yl)methyl)-[1,1′-biphenyl]-3-carboxamide] | 640 | –
13 | N[C@H]1CCN(c2ccc(-c3cccc(C(=O)N[C@@H](c4cc5ccccc5[nH]4)c4cc(F)ccc4O)c3)cc2)C1 [Example 12, 4′-((S)-3-aminopyrrolidine-1-yl)-N—((R)-(5-fluoro-2-hydroxyphenyl)(1H-indole-2-yl)methyl)-[1,1′-biphenyl]-3-carboxamide] | 180 | –
